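In this assay, cells in 96-well plates receive the compound at five concentrations for 48 hours. Endpoints are linearly interpolated between the surrounding concentrations. Abbreviation: GI50, concentration required for 50% inhibition of growth.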 The source made the active and inactive calls. Cut-off read from the data, not from the text of the source: active = GI50 up to about 1.1 µM and inactive = higher.
Tests used:
Experiment in all cases: growth of human tumour cells (NCI), 48 h
KM12 = test system: KM12
OVCAR-3 = test system: OVCAR-3
IGROV-1 = test system: IGROV-1
U-251 = test system: U-251
HCC 2998 = test system: HCC 2998
HT-29 = test system: HT-29
CCRF-CEM = test system: CCRF-CEM
SF-295 = test system: SF-295
T47D = test system: T47D
SK-MEL-2 = test system: SK-MEL-2
LOX IMVI = test system: LOX IMVI
SF-539 = test system: SF-539
PC-3 = test system: PC-3
SF-268 = test system: SF-268
M14 = test system: M14
786-0 = test system: 786-0
SNB-75 = test system: SNB-75
SN12C = test system: SN12C
MCF7 = test system: MCF7
A498 = test system: A498

SMILES	GI50 (KM12)	GI50 (OVCAR-3)	GI50 (IGROV-1)	GI50 (U-251)	GI50 (HCC 2998)	GI50 (HT-29)	GI50 (CCRF-CEM)	GI50 (SF-295)	GI50 (T47D)	GI50 (SK-MEL-2)	GI50 (LOX IMVI)	GI50 (SF-539)	GI50 (PC-3)	GI50 (SF-268)	GI50 (M14)	GI50 (786-0)	GI50 (SNB-75)	GI50 (SN12C)	GI50 (MCF7)	GI50 (A498)
Fc1cc(-c2cc(-c3ccc4c(c3)OCO4)n[nH]2)c(Cl)cc1Cl	3.01 µM (inactive)	2.21 µM (inactive)	1.71 µM (inactive)	1.91 µM (inactive)	4.94 µM (inactive)	4 µM (inactive)	11.9 µM (inactive)	3.05 µM (inactive)	2.2 µM (inactive)	15.8 µM (inactive)	2.95 µM (inactive)	2.31 µM (inactive)	3.62 µM (inactive)	3.24 µM (inactive)	4.75 µM (inactive)	1.84 µM (inactive)	1.8 µM (inactive)	2.7 µM (inactive)		
CC(=O)c1[nH]c(NC(C)C)c(C(=S)Nc2ccccc2)c1N	29.6 µM (inactive)	32.1 µM (inactive)	26.4 µM (inactive)		28.2 µM (inactive)	38.8 µM (inactive)	25.5 µM (inactive)	38.1 µM (inactive)	21.4 µM (inactive)	17.9 µM (inactive)	19.1 µM (inactive)	> 100 µM (inactive)		25.3 µM (inactive)	19.8 µM (inactive)	24.3 µM (inactive)	> 100 µM (inactive)	27.9 µM (inactive)	19.5 µM (inactive)	18.9 µM (inactive)
C[N+]1(C)CCC(C#N)(c2ccccc2)CC1	> 100 µM (inactive)		> 100 µM (inactive)	> 100 µM (inactive)	> 100 µM (inactive)	> 100 µM (inactive)	0.65 µM (active)	> 100 µM (inactive)	> 100 µM (inactive)					> 100 µM (inactive)	> 100 µM (inactive)	> 100 µM (inactive)	35.4 µM (inactive)		> 100 µM (inactive)	> 100 µM (inactive)
O=CC12CCCN1CCC2		> 100 µM (inactive)	> 100 µM (inactive)	> 100 µM (inactive)	> 100 µM (inactive)	> 100 µM (inactive)	> 100 µM (inactive)	> 100 µM (inactive)	> 100 µM (inactive)	> 100 µM (inactive)	> 100 µM (inactive)		> 100 µM (inactive)		> 100 µM (inactive)	> 100 µM (inactive)		> 100 µM (inactive)		
COc1c2c(cc3oc(=O)ccc13)OC(C)(C)C=C2 [XANTHOXYLETIN]	19.2 µM (inactive)	37.9 µM (inactive)	27.6 µM (inactive)	24.9 µM (inactive)	18.7 µM (inactive)	35.8 µM (inactive)		34.1 µM (inactive)	1.48 µM (inactive)	23 µM (inactive)	21.8 µM (inactive)	36.6 µM (inactive)		41.9 µM (inactive)	25.1 µM (inactive)	22.4 µM (inactive)	22 µM (inactive)	29 µM (inactive)	25.4 µM (inactive)	
C1CN1c1nc(N2CC2)nc(N2CC2)n1	16.2 µM (inactive)	16 µM (inactive)	14.2 µM (inactive)	3.92 µM (inactive)	8.87 µM (inactive)	13.2 µM (inactive)	0.82 µM (active)	2.37 µM (inactive)		17.7 µM (inactive)	3.08 µM (inactive)	2.68 µM (inactive)	12.3 µM (inactive)	2.99 µM (inactive)	4.84 µM (inactive)	2.97 µM (inactive)	5.66 µM (inactive)	2.95 µM (inactive)	2.16 µM (inactive)	9.95 µM (inactive)
O=C(NCCC1CN(C(=O)OCc2ccccc2)c2ccccc21)OCc1ccccc1 (stereo not given)	> 100 µM (inactive)	> 100 µM (inactive)	> 100 µM (inactive)	> 100 µM (inactive)	> 100 µM (inactive)	> 100 µM (inactive)		> 100 µM (inactive)		> 100 µM (inactive)			> 100 µM (inactive)	> 100 µM (inactive)	> 100 µM (inactive)	> 100 µM (inactive)	> 100 µM (inactive)		60.4 µM (inactive)	> 100 µM (inactive)

— ChEMBL document CHEMBL1201862, “PubChem BioAssay data set” (2004)
